Measured values as given in article PMC2488398, “Concurrence of Danish Dementia and Cataract: Insights from the Interactions of Dementia Associated Peptides with Eye Lens α-Crystallin” (PLoS ONE, 2008).

Tested on: rat lens
Experiment: Lens protein content in peptide-treated rat lenses
Format: cell-based, Wistar rat
Details: 10 µM peptide, 96 h
Method: Eyes were enucleated from 4 months old Wistar rats, obtained from National Center for Laboratory Animal Services, National Institute of Nutrition, Hyderabad immediately after sacrifice by cervical dislocation. Animal care and protocols were in accordance with and approved by Institutional Animal Ethics Committee. Lenses were dissected from the eyes by anterior approach. Each isolated lens was incubated in 2 ml of modified of TC-199 (Sigma) medium with antibiotics. Osmolarity of the medium was adjusted to 295 milli osmomoles using an osmometer (Micro Osmometer; Model-210, Fiske Associates, Norwood, MA, USA). Lenses were cultured as described previously, [33]. Lenses were incubated at 37°C under 95% air and 5% CO2 in the absence or presence of the various dementia associated peptides dissolved in DMSO for a period of 96 h. All the reagents/chemicals used for lens organ culture were filtered through 0.2 µm Millipore disc filters. Final concentration of a given dementia associated peptides in the culture medium was kept at 10 µM. Medium was changed every 24 h. At the end of incubation, lenses were kept on a grid (12/cm) for assessing the transparency by placing them above a light source.
Lenses were homogenized in 10 vol. of 0.05 M Tris buffer (pH 8.0), containing 0.1 M NaCl and 0.02% sodium azide. The homogenate was centrifuged at 15 000 g for 30 min at 4°C and the resulting supernatant was collected (soluble fraction). The pellet was washed thrice and constituted in the same buffer (insoluble fraction). Protein content in soluble and insoluble fractions was estimated by Lowry's method.

With “Aβ (1–42): column label of Table 1; text gives the same value for Aβ-40” as the substance, how does the Insoluble protein (15 000 g pellet, Lowry's method, Control 95) read?
The Insoluble protein was 145 mg/g lens.

And the Soluble protein (15 000 g supernatant, Lowry's method, Control 421)?
Its Soluble protein is 310 mg/g lens.

What about the Total protein (Lowry's method, Control 518) of the same substance?
The Total protein was 464 mg/g lens.

And the “% Soluble protein” value (in relation to the amount of total protein, Control 81)?
Its value is 67%.
